In patent US20240343760A1, “PEPTIDES FOR CELL-TYPE SPECIFIC TARGETING OF THE RETINA” (Oregon State University, priority 2021, published 2024):
Entries after “also recorded” stand apart in the source; their conditions may differ. Like-named read-outs stand apart in the source and are kept apart here. Ends that are not written are not given here. TAMRA = 5-(and -6)-carboxytetramethylrhodamine fluorophore, conjugated to the side chain of the C-terminal Cys

Legend:
[1] = system: 661w cone cells; assay: Cell internalization of TAMRA-labeled peptides, 661w cone cells; assay type: cell-based, mouse; details: 661w cells, TAMRA-conjugated peptide, 30 minutes
Method: Approximately 50,000 cells were seeded per well of 8-well μ-Slide (Ibidi, Fitchburg, WI) and incubated with 10 nM and 50 nM TAMRA-labeled peptides for 30 minutes at 37° C. followed by washing with PBS, fixation in 4% Paraformaldehyde for 10 mins at room temperature. Cells were then washed three times, DAPI stained and cover slipped for confocal microscopy imaging. Fluorescence confocal images of cell internalization studies were captured with the same exposure settings and were analyzed for fluorescence intensity using ImageJ (version 1.45; National Institutes of Health, Bethesda, MD). First, the hARPE or 661w cells were outlined and ImageJ calculated the pixel intensity of the different cell treatments with different peptides. At least three images were analyzed for each peptide tested.
TAMRA-conjugated peptides were added to hARPE19 and 661w cells at a 10 nM and 50 nM concentration to evaluate their internalization (FIGS. 2E to 2H and 8A to 8B). After 30 minutes of incubation at 37° C., cells were fixed and DAPI stained for confocal imaging.

[2] = system: hARPE19 cells; assay: Cell ELISA of phage-displayed peptides on hARPE19 cells; assay type: cell-based; details: vs empty bacteriophage control
Method: (§1) ARPE19 and 661w cells were seeded a day before the experiment on 96 well plates (10^4 cells/well). On day of experiment, cells were first fixed in 4% paraformaldehyde solution at room temperature for 15 minutes. This was followed by three washes with PBS and then the cells were blocked for 30 minutes at room temperature with 1% BSA in PBS. […] The wells were then washed with 0.1% TBST and individual phage clones were incubated for one hour at room temperature in blocking buffer with gentle rocking. After phage incubation, wells were washed three times with 0.1% TBST to reduce non-specific binding and eliminate weakly bound phages. Biotin-conjugated, mouse anti-M13 phage coat protein primary antibody was added (Thermo Fisher cat. #MA1-34468) at 1:5000 dilution in 0.1% TBST and incubated for 1 hour at room temperature with gentle rocking. The wells were washed three more times with 0.1% TBST and subsequently incubated with poly-HRP streptavidin secondary antibody (Thermo Fisher cat. #N200) at 1:10000 dilution in 0.1% TBST for 1 hour at room temperature. Wells were then washed three times with 0.1% TBST and 3,3′,5,5′-Tetramethylbenzidine (Thermo Fisher) was added to the wells and incubated at room temperature for 5-10 minutes and the reaction was stopped with 0.2 M Sulfuric Acid and absorbance was read at 450 nm using TECAN Infinite200 Pro spectrophotometer (Tecan Group Ltd., Switzerland).
(§2) After identifying 30 novel peptide sequences, top-performing candidates were identified that could target LNPs to the neural retina. Since bacteriophages were eluted from the entire neural retina, the candidates were pre-screened for their ability to bind to the cell of interest, the PRs. Single bacteriophage-peptides were amplified in E. coli, and a cell-based enzyme-linked immunosorbent assay (ELISA) was developed against the 661w mouse cone PR cell line and the hARPE19 cell line as a control. As expected, for most of the bacteriophage-peptide candidates, binding affinities were weaker when tested against RPE cells compared to 661w cone cells. […] However, the binding affinity, as measured by OD450, was close to 2-fold higher when binding to 661w cone cells compared to hARPE19 cells.

[3] = system: 661w cone cells; assay: Cell ELISA of phage-displayed peptides on 661w cone cells; assay type: cell-based, mouse; details: for binding affinity (OD450) 661w cone cells compared to hARPE19 cells: ratio 661w / hARPE19; for binding to 661w cone cells (cell ELISA, OD450): vs empty bacteriophage control
Method: as §1, §2

[4] = system: PR and RPE/choroid layers; details: mouse, in vivo
Method: (§3) For subretinal injections, mice were topically administered 0.5% proparacaine, 1% tropicamide, and 2.5% phenylephrine and anesthetized with ketamine (100 mg/kg)/xylazine (10 mg/kg). To initiate the injection, 2.5% hypromellose was used to cover the eye and a 30-gauge needle was used to make an incision in the limbus. A glass coverslip was then placed over the eye to allow for visualization of the retina. Going through the scleral incision in the limbus, using a Hamilton syringe with a 33-gauge blunt needle, 1 μL PBS, peptide, or LNP-Cre were delivered to the subretinal space. A 2% fluorescein solution was added to the PBS and LNPs so retinal detachment could be confirmed. For most injections, scleral incisions in the limbus were created nasally and PBS or LNPs were delivered temporally. Intravitreal injections were performed as previously described elsewhere (25). […] For intravitreal injections 1.1 μg (1.5 μL, 741 ng/μL) was injected.
(§4) At specified time points, mouse eyes were enucleated and fixed using 4% paraformaldehyde in PBS overnight at 4° C. Eyes were cryopreserved in 30% sucrose solution for 2 hours prior to embedding in OCT media followed by cryo-sectioning and confocal imaging. Retinal cryo-sections were 12 μm thick and DAPI stained prior to confocal imaging done using TCS SP8 X (Leica Microsystems, Buffalo Grove, IL). Z-stacks (spanned 10 μm with 1 μm interval) were collected using a 40× objective, and maximum intensity projections were used for further analysis.
(§5) All confocal imaging was performed using TCS SP8 X (Leica Microsystems, Buffalo Grove, IL). Z-stacks (spanned 10 μm with 1 μm interval) were collected using a 20× or 40× objective, and maximum intensity projections were used for further analysis.
(§6) For TAMRA quantification from peptide injections, region of interest (ROI) were created for RPE/choroid and PR cell layer for mean fluorescent intensity values. Fold change measurements were compared to TAMRA-only controls. An ordinary one-way ANOVA, with Tukey's correction for multiple comparisons test was used for comparisons between groups (Prism 8 software, GraphPad Software, La Jolla, CA). Data are presented as mean±SEM. A p-value <0.05 was considered as statistically significant.

[5] = system: PR and RPE/choroid layers; assay: In vivo validation with TAMRA-labelled peptides, intravitreal or subretinal injection
Method: as §3, §4, §5, §6

Substance	binding to hARPE19 (RPE) cells (cell ELISA, OD450) [2]	binding affinity (OD450) 661w cone cells compared to hARPE19 cells [3] [fold]	binding to 661w cone cells (cell ELISA, OD450) [3]	further results
SPALHFLGGGSC (SPALHFLGGGSC(TAMRA)) [MH42]	significantly higher binding	~2	high binding; also recorded: high-binders; also recorded: top 2 performing	cellular uptake compared to the negative control MH3 [1]: 1.7 fold; clearance of labelled peptide from retina [4]: ≤ 24 h; retinal localization of TAMRA-labelled peptide (confocal) [4]: localized to PRs including the outer nuclear layer and inner/outer segments as well as RPE; timepoint of maximum level of labelled peptide in retina [4]: 6 h
ATGPRSV [Peptide 57]	highest affinity	~2	high binding	binding to hARPE19 (RPE) cells (cell ELISA, OD450) ([2]; listed as MH57): significantly higher binding
SPALHFL [Peptide 42]	–	–	highest affinity	–
SNLAAFPGGGSC (SNLAAFPGGGSC(TAMRA)) [MH43, peptide 43 with added linker; TAMRA-labelled at carboxy-terminal Cys in cell and in vivo tests]	–	–	high-binders	–
SNLAAFP [Peptide 43]	–	–	highest affinity	–
MPVAVYRGGGSC (MPVAVYRGGGSC(TAMRA)) [MH50]	significantly higher binding	~2	high binding; also recorded: high-binders; also recorded: top 2 performing	cellular uptake compared to the negative control MH3 [1]: 4.1 fold; retinal localization of TAMRA-labelled peptide (confocal) [4]: localized to PRs including the outer nuclear layer and inner/outer segments as well as RPE
MPVAVYR [Peptide 50]	highest affinity	–	highest affinity	–
LAFHRMP [Peptide 52]	highest affinity	~2	highest affinity	binding to hARPE19 (RPE) cells (cell ELISA, OD450) ([2]; listed as MH52): significantly higher binding; binding to 661w cone cells (cell ELISA, OD450) ([3]; listed as MH52): high binding
HLSSLTP [Peptide 54]	highest affinity	–	highest affinity	binding to hARPE19 (RPE) cells (cell ELISA, OD450) ([2]; listed as MH54): significantly higher binding
DGPPRKP [Peptide 3]	highest affinity	–	–	–
DGPPRKPGGGSC (DGPPRKPGGGSC(TAMRA); not fully specified) [MH3]	significantly higher binding	–	reduced binding affinity; also recorded: low-binder	retinal localization of TAMRA-labelled peptide (confocal) [5]: poor accumulation in RPE and PRs
